In assay [1] the target is Cathepsin L (Homo sapiens, UniProt P07711). Put plainly: Cathepsin L enzyme assay. The assay is classed as biochemical. The note with it: Ki by Morrison equation; pH 5.5, substrate Z-Phe-Arg-Amc; read-out: Cat L. The text has this: Two wells contained DMSO only for controls.
Velocity was converted to μM/sec.

Assay [2] addresses Cathepsin B (Homo sapiens, UniProt P07858). Put plainly: Cathepsin B enzyme assay. The following applies: Cat B (μM), Ki by Morrison equation; pH 6.0, substrate Z-Phe-Arg-Amc.
The target of assay [3] is Calpain. Put plainly: Calpain enzyme assay. The assay is classed as biochemical. The note with it: Ki by Morrison equation; pH 7.5, 5 mM CaCl2.

Cathepsin L, sequence (P07711 114-333, species assumed): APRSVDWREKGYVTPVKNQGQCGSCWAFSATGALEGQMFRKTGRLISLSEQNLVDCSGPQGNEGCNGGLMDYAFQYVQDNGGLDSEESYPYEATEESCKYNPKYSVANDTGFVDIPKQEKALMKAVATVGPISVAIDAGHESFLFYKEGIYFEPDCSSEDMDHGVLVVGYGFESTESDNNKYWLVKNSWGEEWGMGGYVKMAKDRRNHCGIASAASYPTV

Consider `CCC(C)C(NC(=O)C(=O)C(C)NC(=O)C(Cc1ccccc1)NC(=O)Cc1ccc2ccccc2c1)C(=O)NC(C)(C)C(=O)O` (stereo not drawn) [PHELIX161, 12-benzyl-5-(sec-butyl)-2,2,9-trimethyl-15-(naphthalen-2-yl)-4,7,8,11,14-pentaoxo-3,6,10,13-tetraazapentadecanoic acid], for which the Ki worked out at 1.99 µM in assay [1] and 0.0549 µM in assay [2].

Regarding `CC[C@H](C)[C@H](NC(=O)C(=O)C(C)NC(=O)Cc1ccccc1)C(=O)N1CCC[C@H]1C(=O)O` (stereo partly drawn) [PHELIX138, (2-oxo-3-(2-phenylacetamido)butanoyl)isoleucylproline], the Ki in assay [1] is 69.8 µM; in assay [2], 27.8 µM.

For `CC(NC(=O)C(Cc1ccccc1)NC(=O)Cc1ccccc1)C(=O)C(=O)NC(Cc1ccc2ccccc2c1)C(=O)NC(C)(C)C(=O)O` (stereo not drawn) [PHELIX158, 12-benzyl-2,2,9-trimethyl-5-(naphthalen-2-ylmethyl)-4,7,8,11,14-pentaoxo-15-phenyl-3,6,10,13-tetraazapentadecanoic acid], the Ki in assay [1] was 0.141 µM; in assay [2], 0.439 µM.

With `CC(NC(=O)C(Cc1ccccc1)NC(=O)Cc1ccccc1)C(=O)C(=O)NC(Cc1ccc(C(C)(C)C)cc1)C(=O)NC(C)(C)C(=O)O` [PHELIX180, (5S,12)S-12-benzyl-5-(4-(tert-butyl)benzyl)-2,2,9-trimethyl-4,7,8,11,14-pentaoxo-15-phenyl-3,6,10,13-tetraazapentadecanoic acid], the values for the Ki in assay [1] and in assay [2] were 0.127 µM and 0.197 µM, respectively.

For the compound `CCC(C)C(NC(=O)C(=O)C(C)NC(=O)C(Cc1ccc(F)cc1)NC(=O)Cc1ccccc1)C(=O)NC(C)(C)C(=O)O` (stereo not drawn) [PHELIX172, 5-(sec-butyl)-12-(4-fluorobenzyl)-2,2,9-trimethyl-4,7,8,11,14-pentaoxo-15-phenyl-3,6,10,13-tetraazapentadecanoic acid], the Ki in assay [1] stood at 0.52 µM; in assay [2], 0.0746 µM.

In the case of `CCC(C)C(NC(=O)C(=O)C(C)NC(=O)C(Cc1ccc(-c2ccccc2)cc1)NC(=O)Cc1ccccc1)C(=O)NC(C)(C)C(=O)O` (stereo not drawn) [PHELIX165, 12-([1,1′-biphenyl]-4-ylmethyl)-5-(sec-butyl)-2,2,9-trimethyl-4,7,8,11,14-pentaoxo-15-phenyl-3,6,10,13-tetraazapentadecanoic acid], the Ki in assay [1] was determined as 0.453 µM; in assay [2] it was 0.0736 µM.

In the case of `CCC(C)C(NC(=O)C(=O)C(C)(C)NC(=O)Cc1ccccc1)C(=O)NC(C)(C)C(=O)O` (stereo not drawn) [PHELIX139, 2-methyl-2-(3-methyl-2-(3-methyl-2-oxo-3-(2-phenylacetamido)butanamido)pentanamido)propanoic acid], the Ki in assay [1] is 57.4 µM; in assay [2], 1130 µM.

As to `CCC(C)C(NC(=O)C(CC(C)C)NC(=O)OCc1ccccc1)C(=O)C(=O)NCC(=O)NC(Cc1cc2ccccc2[nH]1)C(N)=O` (stereo not drawn) [PHELIX327, benzyl (1-((1-((2-((1-amino-3-(1H-indol-2-yl)-1-oxopropan-2-yl)amino)-2-oxoethyl)amino)-4-methyl-1,2-dioxohexan-3-yl)amino)-4-methyl-1-oxopentan-2-yl)carbamate], the Ki was found to be 0.00933 µM in assay [1] and 0.00998 µM in assay [3].

Take `CCC(C)C(NC(=O)C(CC(C)C)NC(=O)OCc1ccccc1)C(=O)C(=O)NC(CC(N)=O)Cc1ccccc1` (stereo not drawn) [PHELIX326, benzyl (1-((1-((4-amino-4-oxo-1-phenylbutan-2-yl)amino)-4-methyl-1,2-dioxohexan-3-yl)amino)-4-methyl-1-oxopentan-2-yl)carbamate]: the Ki worked out at 0.0602 µM in assay [1] and 0.702 µM in assay [3].

With `CCC(C)C(NC(=O)C(CC(C)C)NC(=O)OCc1ccccc1)C(=O)C(=O)N1CC(C(=O)NCc2n[nH]c3c2CCC3)C1` (stereo not drawn) [PHELIX364, benzyl (4-methyl-1-((4-methyl-1,2-dioxo-1-(3-(((1,4,5,6-tetrahydrocyclopenta[c]pyrazol-3-yl)methyl)carbamoyl)azetidin-1-yl)hexan-3-yl)amino)-1-oxopentan-2-yl)carbamate], the Ki in assay [1] came to 0.117 µM; in assay [3], 0.0321 µM.

Consider `CCC(C)C(NC(=O)C(CC(C)C)NC(=O)OCc1ccccc1)C(=O)C(=O)NCC(=O)NC(Cc1ccc(C#N)cc1)C(N)=O` (stereo not drawn) [PHELIX350, benzyl (1-((1-((2-((1-amino-3-(4-cyanophenyl)-1-oxopropan-2-yl)amino)-2-oxoethyl)amino)-4-methyl-1,2-dioxohexan-3-yl)amino)-4-methyl-1-oxopentan-2-yl)carbamate], for which the Ki in assay [1] was 0.0042 µM; in assay [3], 0.00345 µM.

With `CCC(C)C(NC(=O)C(CC(C)C)NC(=O)Cc1cccnc1)C(=O)C(=O)NCC(=O)NC(Cc1ccc2ccccc2c1)C(N)=O` (stereo not drawn) [PHELIX312, N-(2-((1-amino-3-(naphthalen-2-yl)-1-oxopropan-2-yl)amino)-2-oxoethyl)-4-methyl-3-(4-methyl-2-(2-(pyridin-3-yl)acetamido)pentanamido)-2-oxohexanamide], the Ki in assay [1] turned out to be 0.00265 µM; in assay [3], 0.00081 µM.

For `CCC(C)C(NC(=O)C(CC(C)C)NC(=O)OCc1ccccc1)C(=O)C(=O)NC(CCCNC(N)=O)C(N)=O` (stereo not drawn) [PHELIX340, benzyl (1-((1-((1-amino-1-oxo-5-ureidopentan-2-yl)amino)-4-methyl-1,2-dioxohexan-3-yl)amino)-4-methyl-1-oxopentan-2-yl)carbamate], the figures for the Ki in assay [1] and in assay [3] were 0.00388 µM and 0.0171 µM, respectively.

Regarding `CC(NC(=O)C(Cc1ccccc1)NC(=O)Cc1ccccc1)C(=O)C(=O)NC(Cc1ccccc1)C(=O)NC(Cc1ccc2ccccc2c1)C(N)=O` (stereo not drawn) [PHELIX216, N-(1-((1-amino-3-(naphthalen-2-yl)-1-oxopropan-2-yl)amino)-1-oxo-3-phenylpropan-2-yl)-2-oxo-3-(3-phenyl-2-(2-phenylacetamido)propanamido)butanamide], the Ki in assay [1] is greater than 1000 µM; in assay [3], greater than 100 µM.

Turning to `CC[C@H](C)C(NC(=O)[C@H](CC(C)C)NC(=O)OCc1ccccc1)C(=O)C(=O)N[C@@H](CCCNC(=N)N)C(N)=O` (stereo partly drawn) [PHELIX290, benzyl (1-((1-((1-amino-5-guanidino-1-oxopentan-2-yl)amino)-4-methyl-1,2-dioxohexan-3-yl)amino)-4-methyl-1-oxopentan-2-yl)carbamate], the Ki in assay [1] was found to be 0.0027 µM; in assay [3], 0.00727 µM.

`CCC(C)C(NC(=O)C(CC(C)C)NC(=O)OCc1ccccc1)C(=O)C(=O)NC(C)C(=O)NC(Cc1ccc2ccccc2c1)C(N)=O` (stereo not drawn) [PHELIX295, benzyl (1-((1-((1-((1-amino-3-(naphthalen-2-yl)-1-oxopropan-2-yl)amino)-1-oxopropan-2-yl)amino)-4-methyl-1,2-dioxohexan-3-yl)amino)-4-methyl-1-oxopentan-2-yl)carbamate]: the Ki in assay [1] stood at 0.00084 µM; in assay [3] it was 0.00205 µM.

`CCC(C)C(NC(=O)C(CC(C)C)NC(=O)OCc1ccccc1)C(=O)C(=O)N1CC(C(=O)NCc2ccc3ccccc3c2)C1` (stereo not drawn) [PHELIX363, benzyl (4-methyl-1-((4-methyl-1-(3-((naphthalen-2-ylmethyl)carbamoyl)azetidin-1-yl)-1,2-dioxohexan-3-yl)amino)-1-oxopentan-2-yl)carbamate]: the Ki in assay [1] was 0.0194 µM; in assay [3] it was 0.178 µM.

Consider `CCC(C)C(NC(=O)C(CC(C)C)NC(=O)CN1CCOCC1)C(=O)C(=O)NCC(=O)N(C)C(Cc1ccccc1)C(N)=O` (stereo not drawn) [PHELIX352, N-(2-((1-amino-1-oxo-3-phenylpropan-2-yl)(methyl)amino)-2-oxoethyl)-4-methyl-3-(4-methyl-2-(2-morpholinoacetamido)pentanamido)-2-oxohexanamide], for which the Ki came out at 0.00048 µM in assay [1] and 0.00193 µM in assay [3].

With `CCC(C)C(NC(=O)C(CC(C)C)NC(=O)OCc1ccccc1)C(=O)C(=O)NCC(=O)NC(Cc1ccccc1)C(N)=O` (stereo not drawn) [PHELIX318, benzyl (1-((1-((2-((1-amino-1-oxo-3-phenylpropan-2-yl)amino)-2-oxoethyl)amino)-4-methyl-1,2-dioxohexan-3-yl)amino)-4-methyl-1-oxopentan-2-yl)carbamate], the Ki in assay [1] worked out at 0.00382 µM; in assay [3], 0.00163 µM.

In the case of `CCC(C)C(NC(=O)C(Cc1c[nH]cn1)NC(=O)Cc1ccccc1)C(=O)C(=O)NCC(=O)NC(Cc1ccc2ccccc2c1)C(N)=O` (stereo not drawn) [PHELIX302, 3-(3-(1H-imidazol-4-yl)-2-(2-phenylacetamido)propanamido)-N-(2-((1-amino-3-(naphthalen-2-yl)-1-oxopropan-2-yl)amino)-2-oxoethyl)-4-methyl-2-oxohexanamide], the figures for the Ki in assay [1] and in assay [3] were 0.389 µM and 0.201 µM, respectively.

For the compound `CCC(C)C(NC(=O)C(CC(N)=O)NC(=O)Cc1ccccc1)C(=O)C(=O)NCC(=O)NC(Cc1ccc2ccccc2c1)C(N)=O` (stereo not drawn) [PHELIX322, N^1-(1-((2-((1-amino-3-(naphthalen-2-yl)-1-oxopropan-2-yl)amino)-2-oxoethyl)amino)-4-methyl-1,2-dioxohexan-3-yl)-2-(2-phenylacetamido)succinamide], the Ki was 0.101 µM in assay [1] and 0.071 µM in assay [3].

Take `CCC(C)C(NC(=O)C(CC(C)C)NC(=O)Cc1ccncc1)C(=O)C(=O)NCC(=O)N(C)C(Cc1ccccc1)C(N)=O` (stereo not drawn) [PHELIX353, N-(2-((1-amino-1-oxo-3-phenylpropan-2-yl)(methyl)amino)-2-oxoethyl)-4-methyl-3-(4-methyl-2-(2-(pyridin-4-yl)acetamido)pentanamido)-2-oxohexanamide]: the Ki in assay [1] was 0.00055 µM; in assay [3] it was 0.00303 µM.

For `CCC(C)C(NC(=O)C(Cc1c[nH]cn1)NC(=O)OCc1ccccc1)C(=O)C(=O)NCC(=O)NC(Cc1ccc2ccccc2c1)C(N)=O` (stereo not drawn) [PHELIX311, benzyl (1-((1-((2-((1-amino-3-(naphthalen-2-yl)-1-oxopropan-2-yl)amino)-2-oxoethyl)amino)-4-methyl-1,2-dioxohexan-3-yl)amino)-3-(1H-imidazol-4-yl)-1-oxopropan-2-yl)carbamate], the Ki in assay [1] is 0.106 µM; in assay [3], 0.309 µM.

As for `CCC(C)C(NC(=O)C(CC(C)C)NC(=O)C(Cc1ccccc1)NC(C)=O)C(=O)C(=O)NC(CCCNC(=N)N)C(N)=O` (stereo not drawn) [PHELIX345], the Ki in assay [1] came to 0.0113 µM; in assay [3], 0.0371 µM.

Values taken from US20190085024A1, “Alpha-Ketoamide Inhibitors Of Cysteine Proteases” (Phelix Therapeutics, priority 2017, published 2019).
